# In patent US20050203013A1, “Methods for inhibiting vascular permeability” (priority 2002, published 2005):
# How the values were obtained:
# [1] = tested on: A2058 human melanoma tumor vessel permeability; assay: Miles assay on tumor-bearing mice (Example 2); assay type: in vivo, SCID mice; conditions: 30 mg/kg/day for three days
# Method: One of the problems with angiogenesis-dependent diseases is increased vessel permeability (due to high levels of VPF) which results in edema and loss of proteins. A decrease in vessel permeability is beneficial in those diseases. We have found, using the Miles assay ([…], et al., Cancer Res, 56:172-181 (1996)), that free and bound TNP-470 block permeability. Briefly, a dye, Evans Blue (1% in PBS), was injected i.v. to anesthesized mice. After 10 min, human recombinant VEGF165 (50 ng/50 μl) was injected intradermally into the back skin. Leakage of protein-bound dye was detected as blue spots on the underside of the back skin surrounding the injection site. After 20 min mice were euthanized. Then, the skin was excised, left in formamide for 5 days to be extracted and the solution read at 620 nm. Putative angiogenesis inhibitors such as free and conjugated TNP-470 were injected daily 3 days (30 mg/kg/day) prior to the VEGF challenge. The same was repeated on tumor-bearing mice to evaluate the effect of angiogenesis inhibitors on tumor vessel permeability.
# [2] = tested on: Bovine adrenal capillary endothelial cells; assay: BCE proliferation assay; assay type: cell-based; conditions: challenged with bFGF, 72 h
# Method: Bovine adrenal capillary endothelial cells were seeded on gelatinized plates (15,000/well). Following 24 h incubation, cells were challenged with free and conjugated TNP-470, and bFGF (1 ng/ml) was added to the medium. Cells were counted after 72 h.
# Ca2+ influx in HMVEC-d = assay: Intracellular Ca2+ release; assay type: cell-based, Human
# Method: For detaching cells, serum-starved HMVEC-d were incubated with 4 ml of collagenase solution (0.2 mg/ml collagenase, 0.2 mg/ml soybean trypsin inhibitor, 1 mg/ml BSA, and 2 mM EDTA in PBS) at 37° C. for 30 minutes. Cell pellets were washed with 2 ml of Ca^2+ buffer (5 mM KCl, 140 mM NaCl, 1 mM CaCl2, 1 mM MgCl2, 5.6 mM glucose, 0.1% BSA, 0.25 mM sulfinpyrazone, and 10 mM HEPEs, pH 7.5) and then resuspended in 2 ml of the same buffer containing 5 ng/ml TNP-470. The cells were incubated at 37° C. for 2 hours in suspension. During the last 30 minutes of incubation, 1 μg/ml Fura-2-AM Fura 2-AM (acetoxymethyl ester derivative of Fura 2) and 0.02% pluronic F-127 were added to the suspension. Cells (106) were collected and resuspended in 2 ml Ca^2+ buffer for VPF/VEGF (10 ng/ml), PAF (20 nM), or histamine ([…]) stimulation. Intracellular Ca^2+ concentrations were measured with the DeltaScan Illumination System (Photon Technology International Inc.) using Felix software, while rocking the tubes.
# [3] = tested on: IL-2-induced pulmonary edema; assay: IL-2 associated pulmonary edema; assay type: in vivo, C57B1/6J male mice
# Method: C57B1/6J male mice were injected with TNP-470 (30 mg/kg daily) or saline subcutaneously (s.c.) for three days. Then mice were injected with IL-2 (1.2×106 units/100 μl) or saline intraperitoneally (i.p.) 3 times a day for 5 days. At termination mice were euthanized and lungs were dissected, weighed, fixed and processed for H & E staining.
# skin vessel permeability = assay: Miles vascular permeability assay (Example 3); assay type: in vivo, SCID mice
# Method: SCID mice were injected subcutaneously (s.c.) with TNP-470 or HPMA copolymer-TNP-470 (30 mg/Kg TNP-equiv.) for three days, with Y27632 (50 nM s.c.) for 11 days, with angiostatin (200 mg/kg/day s.c.) for five days, or with saline (250 μl s.c.) for 5 days (n=12) prior to performing the Miles assay ([…] et al., 1996; Miles and Miles, 1952; Streit et al., 2000). Briefly, Evan's blue dye (100 μl of a 1% solution in 0.9% NaCl) was injected intravenously (i.v.) into mice. After 10 minutes, 50 μl of human VEGF165 (1 ng/μl), PAF (100 μM), CNF-1 (100 ng), histamine (1.2 μg/ml) or PBS (50 ul) were injected intradermally into the pre-shaved back skin. After 20 minutes, the animals were euthanized and an area of skin that included the blue spot resulting from leakage of the dye was removed. Evan's blue dye was extracted from the skin by incubation with formamide for 5 days at room temperature, and the absorbance of extracted dye was measured at 620 nm using a spectrophotometer. The unpaired Student t test was used for statistical analysis.
# HMVEC-d cells = assay: Cell migration assay (modified Boyden chamber); assay type: cell-based, Human
# Method: The motility response of HMVEC-d cells was assayed using a modified Boyden chamber. Cells were plated in T75-cm^2 flasks at 0.5×10^6 cells per flask and allowed to grow for 48 hours (˜70% confluent) prior to the migration assay. To facilitate cell adhesion, the upper membrane of a transwell (8 μm pore; Costar) was coated with fibronectin (10 μg/ml; Becton Dickinson) overnight at 4° C. Coated membranes were rinsed with PBS and allowed to air dry immediately before use. Cells were detached by trypsinization, treated with trypsinization neutralization solution (Clonetics), and resuspended at a final concentration of […] in serum-free EBM-2 containing 0.1% BSA or free or conjugated TNP470 at equivalent concentrations of 1 ng/ml. Cells (50,000 in 100 μl) were added to the upper chamber of the transwell. Following a 2 hours incubation, EBM-2 or EBM-2 supplemented with VPF/VEGF (5 ng/ml) was added to the lower chamber and cells were allowed to migrate toward the bottom chamber for 4 hours in a humidified incubator containing 5% CO2. […] The number of migrated cells was measured using microscopy (three fields from each membrane were captured using a 10× objective), and images were captured with a CCD camera using SPOT software. Total migration per membrane was quantified from the captured images using Scion Image software (National Institutes of Health). […]
# Water solubility = assay type: physicochemical
# Method: To evaluate the biological activity of HPMA-TNP-470, the following assays were performed: […]
compound,measurement,setting,value
CO[C@@H]1[C@H](OC(=O)NC(=O)CCl)CC[C@]2(CO2)[C@H]1[C@@]1(C)O[C@@H]1CC=C(C)C [TNP-470],tumor vessel permeability,[1],decreased
same,BCE cell growth,[2],inhibited
same,Ca2+ influx induced by PAF,Ca2+ influx in HMVEC-d,decreased
same,Ca2+ influx induced by VPF/VEGF,Ca2+ influx in HMVEC-d,decreased
same,Ca2+ influx induced by histamine,Ca2+ influx in HMVEC-d,decreased
same,total body weight,[3]; 3 days treatment,did not affect total body weight
same,"lung pathological features (congestion, edema, fibrin deposition, mononuclear infiltrate)",[3]; IL-2 treated mice,greatly reduced
same,lung weight,[3]; mice treated with both IL-2 and TNP-470,170.2 ± 10.1 mg
same,CNF-1-induced Evan's blue-albumin extravasation,skin vessel permeability; CNF-1 intradermal,inhibited
same,decrease of PAF-induced permeability,skin vessel permeability; PAF intradermal,75%
same,low-level permeability induced by intradermal injections of PBS,skin vessel permeability; PBS intradermal,blocked
same,inhibition of Evan's blue dye extravasation from VPF/VEGF injection sites,skin vessel permeability; VPF/VEGF intradermal,~70%
same,decrease of histamine-induced permeability,skin vessel permeability; histamine intradermal,80%
same,inhibition at 0.001 µg/mL,"HMVEC-d cells; Homo sapiens, 1 ng/ml, 2 hours pretreatment, 4 hours migration, read-out: inhibition of chemotactic migration response to VPF/VEGF",68%
same,inhibition of basal migration,HMVEC-d cells; absence of VPF/VEGF,70%
same,water solubility,Water solubility,not water-soluble
